Holding throughout (assay): NCI tumour cell line growth inhibition, 48 h
In assay [1] the test system is SR leukemia.
Assay [2] relates to NCI-H226 lung.
Assay [3] relates to CAKI-1 renal.
For assay [4], the system named is CCRF-CEM leukemia.
In assay [5] the test system is HS 578T breast.
Assay [6] has as its system SN12C renal.
The subject of assay [7] is SK-MEL-28 melanoma.
Assay [8] relates to 786-0 renal.
For assay [9], the system named is SF-295 CNS.
Assay [10] has as its system PC-3 prostate.

The structures appear in SMILES notation. “And” between values parts separate entries of the source, which are not always exact repeats. Equal values may be shown once.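 Protocol summary: plate cells (96-well), add compound at 5 concentrations, incubate 48 h, interpolate endpoints linearly. The concentration for 50% growth inhibition is given as GI50. TGI: total growth inhibition.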

As to `C/C(=N\Nc1nc2ccccc2[nH]1)c1cc2ccccc2cn1`, the TGI in assay [1] was more than 100 µM; in [2], 1.69 µM; in assay [3], 1.32 µM; in [4] it was 5.65 µM; in assay [5] it was 1.74 µM; in [6] it was 1.06 µM. In addition, the TGI in [7] amounted to 0.429 µM; in assay [8], 0.743 µM.
Turning to `COc1ccc(CCN2CCc3c(C)c(C#N)c4nc5ccccc5n4c32)cc1OC`, the TGI was 93.7 µM in assay [2]; more than 100 µM in assay [3]; more than 100 µM in assay [9]; more than 100 µM in assay [4]; 60.6 µM in assay [5]; more than 100 µM in [10]. The TGI in assay [6], in [7] and in assay [8] was more than 100 µM each time.
Take `CCOC(=O)c1cn(C)c(=S)n2c1nc1ccccc12`: the TGI in [1], in [2], in assay [3], in assay [9], in [4] and in assay [10] was more than 100 µM each time. Further, the TGI in [6], in assay [7] and in assay [8] was more than 100 µM each time.
With `O=C1C=CC(=O)c2c(O)c(N3CCN(CCOCCO)CC3)c(Cl)c(O)c21`, the GI50 in [1] is 0.104 µM and 0.0382 µM and 0.0771 µM; in assay [2] it was 2.69 µM; in [3], 456 nM [middle of 4 runs]; in [5], 0.218 µM; in [10] it was 1.67 µM [middle of 4 runs]. The TGI in [1] is 0.43 µM and 0.614 µM and 0.321 µM; in assay [2] it was 4.68 µM [middle of 4 runs]; in assay [10], 3.23 µM [middle of 4 runs]; in assay [6], 2.07 µM [middle of 4 runs]; in [7], 2.89 µM [middle of 4 runs].
Turning to `COC(=O)C1=C(O)C(C(=O)OC)[C@]2(O)[C@H](C(=O)OC)[C@H]1C[C@@H](c1ccc([N+](=O)[O-])cc1)[C@H]2C(=O)OC` (some centres not stated), the TGI in assay [2] is 65.1 µM; in assay [3], more than 100 µM; in [9] it was more than 100 µM; in [4], 67 µM; in assay [10], 51.9 µM; in assay [6], 47.7 µM. The TGI is 50.9 µM in assay [7] and 31 µM in assay [8].
As for `NC(=O)Cc1nc2c(=O)[nH]cnc2n1C1OC(CO)C(O)C1O` (configuration not stated), the TGI in assay [2], in assay [3], in assay [9], in [4], in [5] and in [10] was more than 100 µM in each case. The TGI in assay [6], in assay [7] and in assay [8] was more than 100 µM each time.
Regarding `COc1ccc2nc3n(c2c1)CCc1cc(OC)c(OC)cc1-3`, the TGI in assay [2], in [3], in assay [9], in assay [4], in assay [5] and in assay [10] was more than 100 µM in each case. Also, the TGI in assay [6], in assay [7] and in [8] was more than 100 µM throughout.
For `COC(=O)CCCC(=O)NC1=C(NCc2ccccc2)C(=O)c2ccccc2C1=O`, the TGI in assay [1], in assay [3], in assay [4], in assay [5], in assay [6] and in assay [7] was more than 100 µM throughout. In addition, the TGI in assay [8] was more than 100 µM.
For the compound `Nc1ncnc2c1ncn2Cc1cccc(CCl)c1`, the TGI in [1] was 46 µM; in [2], 33.4 µM; in [3], 37 µM; in assay [9], 41.8 µM; in [5], more than 100 µM; in assay [10], 35.5 µM. The TGI was found to be 29.3 µM in assay [6], 51.1 µM in assay [7] and 34.6 µM in assay [8].
As for `CC(C)OC1OC(CO)C(O)CC1n1cc(F)c(=O)[nH]c1=O` (configuration not stated), the TGI in assay [2], in assay [3], in assay [9], in [5], in [10] and in assay [6] was more than 100 µM in each case. For the same compound, the TGI in assay [7] and in assay [8] was more than 100 µM each time.
In the case of `C=C(C)[C@@H]1CC[C@]2(C(=O)O)CC[C@]3(C)[C@H](CCC4[C@@]5(C)CC[C@H](C(=O)/C=C/c6ccc(O)c(O)c6)C(C)(C)[C@@H]5CC[C@]43C)[C@@H]12` (some centres not stated), the TGI is more than 100 µM in [1]; 16.8 µM in assay [3]; 18.4 µM in assay [9]; more than 100 µM in assay [4]; 46.2 µM in assay [5]; 21.8 µM in assay [10]. Also, in assay [8], the TGI amounted to 30.2 µM.
In the case of `Cc1csc(NC(=NCCN2CCOCC2)Nc2nc(C)cs2)n1`, the TGI in assay [2], in assay [3], in assay [9], in [4], in assay [6] and in assay [7] was more than 100 µM throughout.
With `CC1(C2CCC3(C)OC3C2)CO1` (configuration not stated), the TGI in assay [1], in assay [2], in assay [3], in assay [9], in assay [4] and in assay [6] was more than 100 µM throughout. In addition, the TGI in [7] and in assay [8] was more than 100 µM in each case.
For the compound `CCOP(=O)(OCC)/C(C#N)=C/c1cccn1Cc1ccccc1`, the TGI in [1] is more than 100 µM; in assay [2], 51.8 µM; in assay [3], more than 100 µM; in assay [9], 97.6 µM; in [4] it was more than 100 µM; in assay [10], more than 100 µM. The TGI in assay [6] was more than 100 µM; in [7], 39.5 µM; in assay [8] it was more than 100 µM.
For `CC(=O)O[C@H]1CC[C@@]2(C)[C@H](CC[C@@H]3[C@@H]2CC[C@]2(C)[C@@H](c4ccc(=O)oc4)C[C@H]4O[C@]342)C1`, the TGI in assay [2] was determined as 7.75 µM; in assay [3] it was 1.31 µM; in assay [9], 2.97 µM; in assay [4], 1.52 µM; in assay [6], 9.49 µM; in assay [7] it was 20.9 µM.

The record behind these values is PubChem BioAssay (NCI).
